In US7396830B2, “Piperazine amidines as antiviral agents” (priority 2005, dated 2008):

tested on: HIV-1; test: Single-round infectious HIV-1 luciferase reporter virus infection of HeLa CD4 cells; format: cell-based; details: Human immunodeficiency virus 1, HeLa, 72 h, read-out: EC50 Group from Table 1
Method: • Virus production—Human embryonic Kidney cell line, 293T, was propagated in Dulbecco's Modified Eagle Medium (Invitrogen, Carlsbad, Calif.) containing 10% fetal Bovine serum (FBS, Sigma, St. Louis, Mo.). • Virus infection—Human epithelial cell line, HeLa, expressing the HIV-1 receptor CD4 was propagated in Dulbecco's Modified Eagle Medium (Invitrogen, Carlsbad, Calif.) containing 10% fetal Bovine serum (FBS, Sigma, St. Louis , Mo.) and supplemented with 0.2 mg/mL Geneticin (Invitrogen, Carlsbad, Calif.). Virus-Single-round infectious reporter virus was produced by co-transfecting human embryonic Kidney 293 cells with an HIV-1 envelope DNA expression vector and a proviral cDNA containing an envelope deletion mutation and the luciferase reporter gene inserted in place of HIV-1 nef sequences (Chen et al, Ref. 41). Transfections were performed using lipofectAMINE PLUS reagent as described by the manufacturer (Invitrogen, Carlsbad, Calif.). Experiment • 1. HeLa CD4 cells were plated in 96 well plates at a cell density of 1×10^4 cells per well in 100 μl Dulbecco's Modified Eagle Medium containing 10% fetal Bovine serum and incubated overnight. • 2. Compound was added in a 2 μl dimethylsulfoxide solution, so that the final assay concentration would be ≦10 μM. • 3. 100 μl of single-round infectious reporter virus in Dulbecco's Modified Eagle Medium was then added to the plated cells and compound at an approximate multiplicity of infection (MOI) of 0.01, resulting in a final volume of 200 μl per well. • 4. Virally-infected cells were incubated at 37 degrees Celsius, in a CO2 incubator, and harvested 72 h after infection. • 5. Viral infection was monitored by measuring luciferase expression from viral DNA in the infected cells using a luciferase reporter gene assay kit, as described by the manufacturer (Roche Molecular Biochemicals, Indianapolis, Ind.). Infected cell supernatants were removed and 50 μl of lysis buffer was added per well. After 15 minutes, 50 μl of freshly-reconstituted luciferase assay reagent was added per well. Luciferase activity was then quantified by measuring luminescence using a Wallac microbeta scintillation counter. • 6. The percent inhibition for each compound was calculated by quantifying the level of luciferase expression in cells infected in the presence of each compound as a percentage of that observed for cells infected in the absence of compound and subtracting such a determined value from 100. • 7. An EC50 provides a method for comparing the antiviral potency of the compounds of this disclosure. The effective concentration for fifty percent inhibition (EC50) was calculated with the Microsoft Excel Xlfit curve fitting software. For each compound, curves were generated from percent inhibition calculated at 10 different concentrations by using a four paramenter logistic model (model 205). Table 1 is the key for the data in Table 2. Results

| Compound | EC50 |
| --- | --- |
| CS(=O)(=O)/N=C(\c1ccccc1)N1CCN(C(=O)C(=O)c2c[nH]c3cccc(F)c23)CC1 [AM-09] | < 500 nM |
| O=C(C(=O)N1CCN(/C(=N/C2CC2)c2ccccc2)CC1)c1c[nH]c2cccc(F)c12 [AM-21] | > 500 nM |
| COc1cnc(-n2ccnn2)c2[nH]cc(C(=O)C(=O)N3CCN(/C(=N/C#N)c4ccccc4)CC3)c12 [AM-24] | < 500 nM |
| CN(C)CCC/N=C(\c1ccccc1)N1CCN(C(=O)C(=O)c2c[nH]c3c(-n4ccnn4)ncc(F)c23)CC1 [AM-58] | < 500 nM |
| CN(C)S(=O)(=O)/N=C(\c1ccccc1)N1CCN(C(=O)C(=O)c2c[nH]c3cccc(F)c23)CC1 [AM-26] | > 500 nM |
| O=C(C(=O)N1CCN(/C(=N/CCN2CCOCC2)c2ccccc2)CC1)c1c[nH]c2c(Br)ccc(F)c12 [AM-06] | < 500 nM |
| COc1cnc(-c2cnccn2)c2[nH]cc(C(=O)C(=O)N3CCN(C(=N)c4ccccc4)C[C@H]3C)c12 [AM-71] | < 500 nM |
| N#C/N=C(\c1ccccc1)N1CCN(C(=O)C(=O)c2c[nH]c3c(-n4ccnn4)ncc(F)c23)CC1 [AM-10, ((4-(2-(4-fluoro-7-(1H-1,2,3-triazol-1-yl)-1H-pyrrolo[2,3-c]pyridin-3-yl)-2-oxoacetyl)piperazin-1-yl)(phenyl)methylene)cyanamide] | < 500 nM |
| COc1cnc(-n2cnc(C)n2)c2[nH]cc(C(=O)C(=O)N3CCN(/C(=N/C#N)c4ccccc4)CC3)c12 [AM-16] | < 500 nM |
| N=C(c1ccccc1)N1CCN(C(=O)C(=O)c2c[nH]c3cccc(F)c23)CC1 [AM-01, 1-(4-fluoro-1H-indol-3-yl)-2-(4-(imino(phenyl)methyl)piperazin-1-yl)ethane-1,2-dione] | < 500 nM |
| CC(C)NC(=O)/N=C(\c1ccccc1)N1CCN(C(=O)C(=O)c2c[nH]c3cccc(F)c23)CC1 [AM-36] | > 500 nM |
| C[C@@H]1CN(C(=N)c2ccccc2)CCN1C(=O)C(=O)c1c[nH]c2c(-n3ccnn3)ncc(F)c12 [AM-33] | < 500 nM |
| CCC/N=C(\c1ccccc1)N1CCN(C(=O)C(=O)c2c[nH]c3ccccc23)CC1 [AM-13] | > 500 nM |
| O=C(C(=O)N1CCN(/C(=N/CCN2CCOCC2)c2ccccc2)CC1)c1c[nH]c2cccc(F)c12 [AM-23] | > 500 nM |
| O=C(C(=O)N1CCN(/C(=N/c2ccccc2)c2ccccc2)CC1)c1c[nH]c2cccc(F)c12 [AM-08, 1-(4-fluoro-1H-indol-3-yl)-2-(4-(phenyl(phenylimino)methyl)piperazin-1-yl)ethane-1,2-dione] | < 500 nM |
| COc1cnc(-n2ccnn2)c2[nH]cc(C(=O)C(=O)N3CCN(C(=N)c4ccccc4)CC3)c12 [AM-34] | < 500 nM |
| C/N=C(\c1ccccc1)N1CCN(C(=O)C(=O)c2c[nH]c3ccccc23)CC1 [AM-12] | > 500 nM |
| COc1cnc(-n2cnc(C)n2)c2[nH]cc(C(=O)C(=O)N3CCN(C(=N)c4ccccn4)CC3)c12 [AM-55] | < 500 nM |
| CCN(CC)CC/N=C(\c1ccccc1)N1CCN(C(=O)C(=O)c2c[nH]c3c(Br)ccc(F)c23)CC1 [AM-05] | < 500 nM |

| Compound | EC50 |
| --- | --- |
| C[C@H]1CN(/C(=N/C#N)c2ccccc2)CCN1C(=O)C(=O)c1c[nH]c2c(-n3ccnn3)ncc(F)c12 [AM-65] | < 500 nM |
| C/N=C(\c1ccccc1)N1CCN(C(=O)C(=O)c2c[nH]c3cccc(F)c23)CC1 [AM-18] | > 500 nM |
| CN(C)S(=O)(=O)/N=C(\c1ccccc1)N1CCN(C(=O)C(=O)c2c[nH]c3c(-n4ccnn4)ncc(F)c23)CC1 [AM-67] | < 500 nM |
| COc1cnc(-n2cnc(C)n2)c2[nH]cc(C(=O)C(=O)N3CCN(/C(=N/C#N)c4ccccn4)CC3)c12 [AM-82] | < 500 nM |
| N#C/N=C(\c1ccccc1)N1CCN(C(=O)C(=O)c2c[nH]c3c(Br)ccc(F)c23)CC1 [AM-17] | < 500 nM |
| O=C(C(=O)N1CCN(/C(=N/CCOCCO)c2ccccc2)CC1)c1c[nH]c2cccc(F)c12 [AM-19] | > 500 nM |
| CS(=O)(=O)/N=C(\c1ccccc1)N1CCN(C(=O)C(=O)c2c[nH]c3c(-n4ccnn4)ncc(F)c23)CC1 [AM-68] | < 500 nM |
| CC[C@@H]1CN(/C(=N/C#N)c2ccccc2)CCN1C(=O)C(=O)c1c[nH]c2c(-n3ccnn3)ncc(F)c12 [AM-66] | < 500 nM |
| N#C/N=C(\c1ccccc1)N1CCN(C(=O)C(=O)c2c[nH]c3c(F)ccc(F)c23)CC1 [AM-30] | < 500 nM |
| C[C@H]1CN(/C(=N/C#N)c2ccccc2)CCN1C(=O)C(=O)c1c[nH]c2c(-c3nccs3)ccc(F)c12 [AM-78] | < 500 nM |
| CC(C)(C)/N=C(\c1ccccc1)N1CCN(C(=O)C(=O)c2c[nH]c3ccccc23)CC1 [AM-14] | > 500 nM |
| CCc1ncn(-c2ncc(OC)c3c(C(=O)C(=O)N4CCN(/C(=N/C#N)c5ccccc5)CC4)c[nH]c23)n1 [AM-53] | < 500 nM |
| N=C(c1ccccc1)N1CCN(C(=O)C(=O)c2c[nH]c3c(-c4nccs4)ccc(F)c23)CC1 [AM-77] | < 500 nM |
| CC/N=C(\c1ccccc1)N1CCN(C(=O)C(=O)c2c[nH]c3c(-n4ccnn4)ncc(F)c23)CC1 [AM-59] | < 500 nM |
| C[C@H]1CN(/C(=N/C#N)c2ccccc2)CCN1C(=O)C(=O)c1c[nH]c2c(-c3ccccn3)ccc(F)c12 [AM-79] | < 500 nM |
| N#C/N=C(\c1ccccc1)N1CCN(C(=O)C(=O)c2c[nH]c3cccc(F)c23)CC1 [AM-02] | < 500 nM |
| O=C(C(=O)N1CCN(/C(=N/c2cccnc2)c2ccccc2)CC1)c1c[nH]c2cccc(F)c12 [AM-22] | > 500 nM |
| C[C@H]1CN(/C(=N/C#N)c2ccccc2)CCN1C(=O)C(=O)c1c[nH]c2c(Br)ccc(F)c12 [AM-76] | < 500 nM |
| N=C(c1ccccc1)N1CCN(C(=O)C(=O)c2c[nH]c3c(Br)ccc(F)c23)CC1 [AM-73] | < 500 nM |

| Compound | EC50 |
| --- | --- |
| CN(C)CCC/N=C(\c1ccccc1)N1CCN(C(=O)C(=O)c2c[nH]c3cccc(F)c23)CC1 [AM-20] | > 500 nM |
| N#C/N=C(\c1ccccc1)N1CCN(C(=O)C(=O)c2c[nH]c3cc(F)cc(F)c23)CC1 [AM-28] | < 500 nM |
| C/N=C(\c1ccccc1)N1CCN(C(=O)C(=O)c2c[nH]c3c(-n4cnc(C)n4)ncc(OC)c23)CC1 [AM-70] | < 500 nM |
| COc1ncc(OC)c2c(C(=O)C(=O)N3CCN(/C(=N/C#N)c4ccccc4)CC3)c[nH]c12 [AM-03] | < 500 nM |
| C[C@@H]1CN(/C(=N/C#N)c2ccccc2)CCN1C(=O)C(=O)c1c[nH]c2c(-n3ccnn3)ncc(F)c12 [AM-25, (((R)-4-(2-(4-fluoro-7-(1H-1,2,3-triazol-1-yl)-1H-pyrrolo[2,3-c]pyridin-3-yl)-2-oxoacetyl)-3-methylpiperazin-1-yl)(phenyl)methylene)cyanamide] | < 500 nM |
| O=C(C(=O)N1CCN(/C(=N/C2CCC2)c2ccccc2)CC1)c1c[nH]c2c(-n3ccnn3)ncc(F)c12 [AM-56] | < 500 nM |
| N#C/N=C(\c1ccccn1)N1CCN(C(=O)C(=O)c2c[nH]c3c(-n4ccnn4)ncc(F)c23)CC1 [AM-81] | < 500 nM |
| COc1cnc(-n2ccc(-c3ccc(C#N)cc3)n2)c2[nH]cc(C(=O)C(=O)N3CCN(/C(=N/C#N)c4ccccc4)CC3)c12 [AM-11] | < 500 nM |
| N=C(c1ccccn1)N1CCN(C(=O)C(=O)c2c[nH]c3c(-n4ccnn4)ncc(F)c23)CC1 [AM-54] | < 500 nM |
| CC1(C)OB(c2ccc(NC(=O)/N=C(\c3ccccc3)N3CCN(C(=O)C(=O)c4c[nH]c5cccc(F)c45)CC3)cc2)OC1(C)C [AM-50] | > 500 nM |
| CN(C)S(=O)(=O)/N=C(\c1ccccc1)N1CCN(C(=O)C(=O)c2c[nH]c3ccccc23)CC1 [AM-04] | < 500 nM |
| COc1ccc(Br)c2[nH]cc(C(=O)C(=O)N3CCN(/C(=N/S(C)(=O)=O)c4ccccc4)CC3)c12 [AM-07] | < 500 nM |
| CC(C)/N=C(\c1ccccc1)N1CCN(C(=O)C(=O)c2c[nH]c3c(-n4ccnn4)ncc(F)c23)CC1 [AM-64] | < 500 nM |
| O=C(C(=O)N1CCN(/C(=N/C2CCCC2)c2ccccc2)CC1)c1c[nH]c2c(-n3ccnn3)ncc(F)c12 [AM-61] | < 500 nM |
| COc1cnc(-c2cnccn2)c2[nH]cc(C(=O)C(=O)N3CCN(C(=N)c4ccccc4)C[C@@H]3C)c12 [AM-72] | < 500 nM |
| O=C(C(=O)N1CCN(/C(=N/CCOCCO)c2ccccc2)CC1)c1c[nH]c2c(-n3ccnn3)ncc(F)c12 [AM-60] | < 500 nM |
| C[C@H]1CN(/C(=N/C#N)c2ccccc2)CCN1C(=O)C(=O)c1c[nH]c2c(-c3cc4ccccc4s3)ccc(F)c12 [AM-80] | < 500 nM |
| C/N=C(\c1ccccc1)N1CCN(C(=O)C(=O)c2c[nH]c3c(-n4ccnn4)ncc(F)c23)CC1 [AM-69] | < 500 nM |
| CCCC/N=C(\c1ccccc1)N1CCN(C(=O)C(=O)c2c[nH]c3c(-n4ccnn4)ncc(F)c23)CC1 [AM-62] | < 500 nM |
